Holding throughout (assay type): functional
Test [1] concerns Jurkat. Put plainly: Antiproliferative activity against human Jurkat cells assessed as […] cell proliferation at 10 uM incubated for 48 hrs in presence of 2 uM of CDDP by WST-1 assay relative to control. (In general: Tetrazolium assays rely on reduction of a dye to a coloured formazan, in cell work by metabolically active cells.)
For test [2], the system named is HT-29. Briefly: Antiproliferative activity against human HT-29 cells assessed as […] cell proliferation at 10 uM incubated for 48 hrs in presence of 15 uM of CDDP by WST-1 assay relative to control.
For test [3], the system named is PANC-1. Put plainly: Antiproliferative activity against human PANC-1 cells assessed as […] cell proliferation at 10 uM incubated for 48 hrs in presence of 15 uM of CDDP by WST-1 assay relative to control.
Test [4] concerns SAOS-2. Briefly: Antiproliferative activity against human SAOS-2 cells assessed as […] cell proliferation at 10 uM incubated for 48 hrs by WST-1 assay relative to control.
For test [5], the system named is PANC-1. Put plainly: Antiproliferative activity against human PANC-1 cells assessed as […] cell proliferation at 10 uM incubated for 48 hrs by WST-1 assay relative to control.
Test [6] has as its system A549. Put plainly: Antiproliferative activity against human A549 cells assessed as […] cell proliferation at 10 uM incubated for 48 hrs by WST-1 assay relative to control.
In test [7] the test system is HT-29. Put plainly: Antiproliferative activity against human HT-29 cells assessed as […] cell proliferation at 10 uM incubated for 48 hrs by WST-1 assay relative to control.
In test [8] the test system is A549. Briefly: Antiproliferative activity against human A549 cells assessed as […] cell proliferation at 10 uM incubated for 48 hrs in presence of 15 uM of CDDP by WST-1 assay relative to control.
For test [9], the system named is HeLa. Briefly: Antiproliferative activity against human HeLa cells assessed as […] cell proliferation at 10 uM incubated for 48 hrs in presence of 15 uM of CDDP by WST-1 assay relative to control.
The test system of test [10] is HeLa. Put plainly: Antiproliferative activity against human HeLa cells assessed as […] cell proliferation at 10 uM incubated for 48 hrs by WST-1 assay relative to control.
Test [11] relates to MCF7. Briefly: Antiproliferative activity against human MCF7 cells assessed as […] cell proliferation at 10 uM incubated for 48 hrs in presence of 10 uM of CDDP by WST-1 assay relative to control.
The subject of test [12] is MOLT-4. Briefly: Antiproliferative activity against human MOLT-4 cells assessed as […] cell proliferation at 10 uM incubated for 48 hrs in presence of 2 uM of CDDP by WST-1 assay relative to control.
For test [13], the system named is Jurkat. Put plainly: Antiproliferative activity against human Jurkat cells assessed as […] cell proliferation at 10 uM incubated for 48 hrs by WST-1 assay relative to control.
The test system of test [14] is MOLT-4. Briefly: Antiproliferative activity against human MOLT-4 cells assessed as […] cell proliferation at 10 uM incubated for 48 hrs by WST-1 assay relative to control.
The subject of test [15] is A2780. Put plainly: Antiproliferative activity against human A2780 cells assessed as […] cell proliferation at 10 uM incubated for 48 hrs by WST-1 assay relative to control.
In test [16] the test system is MCF7. Put plainly: Antiproliferative activity against human MCF7 cells assessed as […] cell proliferation at 10 uM incubated for 48 hrs by WST-1 assay relative to control.
Test [17] has as its system A2780. Briefly: Antiproliferative activity against human A2780 cells assessed as […] cell proliferation at 10 uM incubated for 48 hrs in presence of 2 uM of CDDP by WST-1 assay relative to control.
Test [18] relates to SAOS-2. Put plainly: Antiproliferative activity against human SAOS-2 cells assessed as […] cell proliferation at 10 uM incubated for 48 hrs in presence of 15 uM of CDDP by WST-1 assay relative to control.

Structures are written as SMILES.

In the case of `CC(C)S(=O)(=O)c1ccc(-c2cc(-c3nnc(-c4ccccc4)o3)n[nH]2)cc1`, the Activity stood at 64% with Jurkat [1]; 64% in the test with HT-29 [2]; 64% in the test on PANC-1 [3]; 98% in the test on SAOS-2 [4]; 98% in the test with PANC-1 [5]; 98% in the test on A549 [6]. Moreover, the Activity in the test with A549 [8] was 64%; in the test with HeLa [9], 64%; in the test on HeLa [10], 98%; in the test on MCF7 [11], 64%; in the test with MOLT-4 [12], 64%; in the test on Jurkat [13], 98%. In addition, the Activity in the test with MOLT-4 [14] is on record as 98%; in the test on A2780 [15], 98%; in the test with MCF7 [16] it was 98%; in the test on A2780 [17], 64%; in the test with SAOS-2 [18], 64%. The “Cell viability relative to control” value with HT-29 [7] is 98%.

Consider `CCN1CCN(Cc2c[nH]c3ncc(-c4ccc(S(=O)(=O)C(C)C)cc4)cc23)CC1`, for which the Activity in the test on Jurkat [1] is on record as 65%; in the test on HT-29 [2], 65%; in the test on PANC-1 [3], 65%; with SAOS-2 [4], 97%; in the test on PANC-1 [5] it was 97%; in the test on A549 [6], 97%. In addition, the Activity with A549 [8] was 65%; in the test on HeLa [9], 65%; in the test with HeLa [10], 97%; with MCF7 [11] it was 65%; with MOLT-4 [12], 65%; with Jurkat [13] it was 97%. Further, the Activity was determined as 97% with MOLT-4 [14]; 97% in the test with A2780 [15]; 97% with MCF7 [16]; 65% in the test on A2780 [17]; 65% in the test with SAOS-2 [18]. Further, the “Cell viability relative to control” value in the test with HT-29 [7] amounted to 97%.

As to `CCN1CCN(C2CCN(C(=O)c3c[nH]c4ncc(-c5ccc(S(=O)(=O)C(C)C)cc5)cc34)CC2)CC1`, the Activity came to 62% in the test with Jurkat [1]; 62% with HT-29 [2]; 62% with PANC-1 [3]; 100% with SAOS-2 [4]; 100% in the test with PANC-1 [5]; 100% with A549 [6]. Moreover, the Activity came to 62% in the test with A549 [8]; 62% in the test with HeLa [9]; 100% in the test with HeLa [10]; 62% in the test with MCF7 [11]; 62% in the test on MOLT-4 [12]; 100% in the test on Jurkat [13]. Further, the Activity in the test on MOLT-4 [14] is 100%; with A2780 [15], 100%; with MCF7 [16], 100%; with A2780 [17], 62%; in the test with SAOS-2 [18], 62%. The “Cell viability relative to control” value with HT-29 [7] stood at 100%.

As to `CS(=O)(=O)c1ccc(-c2cnc3[nH]c(C(=O)N4CCC(c5ccccc5)CC4)cc3c2)cc1`, the Activity in the test with Jurkat [1] came out at 66%; in the test with HT-29 [2], 66%; in the test with PANC-1 [3], 66%; in the test on SAOS-2 [4] it was 93%; in the test on PANC-1 [5] it was 93%; in the test with A549 [6], 93%. Moreover, the Activity in the test with A549 [8] came to 66%; in the test with HeLa [9], 66%; with HeLa [10], 93%; with MCF7 [11], 66%; with MOLT-4 [12], 66%; in the test with Jurkat [13], 93%. The Activity in the test on MOLT-4 [14] is listed as 93%; in the test on A2780 [15] it was 93%; in the test on MCF7 [16], 93%; in the test with A2780 [17], 66%; in the test on SAOS-2 [18] it was 66%. For the same compound, the “Cell viability relative to control” value with HT-29 [7] was 93%.

Take `CC(C)S(=O)(=O)c1ccc(-c2cc(C(=O)Nc3ccc(N(C)C)cc3)n[nH]2)cc1`: the Activity worked out at 65% with Jurkat [1]; 65% in the test on HT-29 [2]; 65% in the test on PANC-1 [3]; 93% in the test on SAOS-2 [4]; 93% in the test on PANC-1 [5]; 93% in the test with A549 [6]. The Activity in the test on A549 [8] is on record as 65%; with HeLa [9], 65%; in the test with HeLa [10] it was 93%; in the test on MCF7 [11], 65%; in the test on MOLT-4 [12], 65%; in the test with Jurkat [13], 93%. Further, the Activity in the test with MOLT-4 [14] is on record as 93%; with A2780 [15], 93%; in the test on MCF7 [16], 93%; with A2780 [17], 65%; in the test on SAOS-2 [18], 65%. For the same compound, the “Cell viability relative to control” value with HT-29 [7] came to 93%.

Turning to `CC(C)S(=O)(=O)c1ccc(-c2cnc3[nH]cc(C(=O)NCc4ccccc4)c3c2)cc1`, the Activity is on record as 65% in the test with Jurkat [1]; 65% in the test on HT-29 [2]; 65% in the test with PANC-1 [3]; 83% in the test on SAOS-2 [4]; 83% with PANC-1 [5]; 83% with A549 [6]. Further, the Activity in the test on A549 [8] was 65%; in the test with HeLa [9], 65%; in the test on HeLa [10] it was 83%; in the test with MCF7 [11] it was 65%; in the test with MOLT-4 [12], 65%; in the test with Jurkat [13], 83%. Also, the Activity is on record as 83% in the test on MOLT-4 [14]; 83% with A2780 [15]; 83% in the test on MCF7 [16]; 65% in the test on A2780 [17]; 65% in the test with SAOS-2 [18]. Besides, the “Cell viability relative to control” value in the test with HT-29 [7] amounted to 83%.

On to `CS(=O)(=O)c1ccc(-c2cnc3[nH]cc(C(=O)NCc4ccccc4)c3c2)cc1`, for which the Activity with Jurkat [1] turned out to be 64%; in the test on HT-29 [2], 64%; with PANC-1 [3], 64%; with SAOS-2 [4], 89%; with PANC-1 [5], 89%; in the test on A549 [6], 89%. The Activity is 64% in the test with A549 [8]; 64% in the test with HeLa [9]; 89% with HeLa [10]; 64% in the test on MCF7 [11]; 64% in the test with MOLT-4 [12]; 89% in the test on Jurkat [13]. For the same compound, the Activity with MOLT-4 [14] is given as 89%; with A2780 [15], 89%; with MCF7 [16] it was 89%; in the test on A2780 [17] it was 64%; in the test on SAOS-2 [18], 64%. Besides, the “Cell viability relative to control” value in the test on HT-29 [7] turned out to be 89%.

Consider `CC(C)S(=O)(=O)c1ccc(-c2cnc3[nH]c(C(=O)NCc4ccccc4)cc3c2)cc1`, for which the Activity in the test on Jurkat [1] is on record as 61%; in the test with HT-29 [2] it was 61%; in the test on PANC-1 [3] it was 61%; in the test with SAOS-2 [4], 100%; in the test with PANC-1 [5], 100%; with A549 [6] it was 100%. Further, the Activity in the test on A549 [8] is 61%; in the test on HeLa [9] it was 61%; in the test on HeLa [10] it was 100%; in the test on MCF7 [11], 61%; in the test on MOLT-4 [12], 61%; with Jurkat [13] it was 100%. Moreover, the Activity is recorded as 100% in the test with MOLT-4 [14]; 100% in the test with A2780 [15]; 100% in the test with MCF7 [16]; 61% in the test on A2780 [17]; 61% in the test with SAOS-2 [18]. In the test with HT-29 [7], the “Cell viability relative to control” value is recorded as 100%.

For `CC(C)S(=O)(=O)c1ccc(-c2cc(-c3nc(-c4ccccc4)no3)n[nH]2)cc1`, the Activity stood at 62% in the test on Jurkat [1]; 62% in the test with HT-29 [2]; 62% in the test with PANC-1 [3]; 101% in the test on SAOS-2 [4]; 101% in the test with PANC-1 [5]; 101% in the test on A549 [6]. The Activity with A549 [8] turned out to be 62%; with HeLa [9], 62%; in the test on HeLa [10] it was 101%; with MCF7 [11], 62%; with MOLT-4 [12], 62%; in the test on Jurkat [13], 101%. The Activity is 101% with MOLT-4 [14]; 101% with A2780 [15]; 101% in the test on MCF7 [16]; 62% with A2780 [17]; 62% in the test on SAOS-2 [18]. For the same compound, the “Cell viability relative to control” value with HT-29 [7] is given as 101%.

These data come from ChEMBL document CHEMBL5113478, “7-Azaindole, 2,7-diazaindole, and 1H-pyrazole as core structures for novel anticancer agents with potential chemosensitizing properties” (Eur J Med Chem, 2022).
